Results as given in patent publication US20040122059A1, “PPAR-gamma ligands in the treatment of asthma and allergies” (The Penn State Research Foundation, priority 2002, published 2004).
Values joined by “and” are separate entries in the source; they are usually repeats but may differ in a detail not shown here. Identical values can stand only once.

Key:
[1] = test system: TH1 cells; assay: Cytokine production by TH1-primed DO11.10 CD4+ T cells stimulated with PMA and ionomycin; assay type: cell-based, mouse; conditions: PGJ2 10 mM, CLA 5 mM, 72 h supernatant ELISA
Procedure: (§1) TH cell cultures. Lymph node and spleen cells from the DO11.10 TCR transgenic mice were removed and CD4 positive cells were isolated using the CD4 Immunocolumns and the manufacturer's instructions (Cedarlane labs, Homby, Canada). CD4 positive T cells (95-98% pure) were cultured in vitro with OVA and mitomycin C treated splenocytes from congenic mice. The cultures were incubated under neutral conditions (TH0 priming) or with rIL-4 and anti-IFN-γ antibodies (TH2 priming), or with rIL-12 (TH1 priming). After 4 days (4d) in culture the cells were collected and dead splenocytes were removed by centrifugation over histopaque. […] T cells were collected and recultured with rIL-2 (Pharmingen) for 3 d to expand the T cells. Cells were then collected, washed and stimulated for proliferation and cytokine synthesis with phorbal myristiyl acetate (PMA, Sigma, St. Louis, Mo.) and ionomycin (Sigma) in the presence of PJG2, conjugated linoleic acid (CLA) or control treated.
(§2) Measurement of lymphocyte proliferation and cytokine production. Th cells were cultured in 96 well plates for proliferation assays and 24 well plates for supernatants (Corning Costar, Corning, N.Y.). After 72 h, supernatants were collected for ELISAs. For proliferation assays, 0.4 μCi of [3H]thymidine (ICN, Costa Mesa, Calif.) was added to each well and the cells were incubated for an additional 18 h. Radioactive thymidine incorporation was determined by liquid scintillation using a Beta plate Counter. Mouse IL-2, IL-4, IL-5 and IFN-γ production were detected using ELISA kits from Pharmingen, following the instructions provided. The ELISA detection limits were 25 pg/ml IL-2, 62 pg/ml IL-4, 312 pg/ml IL-5, and 1000 pg/ml IFN-γ.
(§3) The present inventors decided to test if T cells are direct targets of PPAR-γ ligands. Purified CD4+T cells carrying the transgenic TcR for OVA (DO11.10) were cultured in vitro with OVA and mitomycin C treated splenocytes under neutral conditions (THO priming) or with rIL-4 and anti-IFN-γ antibodies (TH2 priming), or with rIL-12 (TH1 priming). Following 4 days of initial culture, cells were isolated and expanded in rIL-2. These expanded antigen specific T cells were stimulated in the presence or absence of PJG2, a PPAR-γ ligand and cells analyzed for proliferation and cytokine synthesis (Table 1). As previously characterized, cells initially stimulated under TH1 conditions (TH1 cells) secreted more IFN-γ and IL-2 and less IL-4 and IL-5 than those initially stimulated under TH2 conditions (TH2 cells). The TH1 and TH2 cells were greater than 95% CD4+and carried the transgenic TcR (data not shown). The PPAR-γ ligand PGJ2 regulated cytokine production in both TH1 and TH2 cells. PGJ2 inhibited IL-4 and IL-5 production in TH1 cells and inhibited IFN-γ, IL-2, and IL-5 production in TH2 cells (Table 1).

[2] = test system: TH2 cells; assay: Cytokine production by TH2-primed DO11.10 CD4+ T cells stimulated with PMA and ionomycin; assay type: cell-based, mouse; conditions: PGJ2 10 mM, CLA 5 mM, 72 h supernatant ELISA
Procedure: as §1, §2, §3

[3] = test system: splenocytes; assay: Antigen specific cytokine production and proliferation of splenocytes from treated mice restimulated in vitro with OVA; assay type: in vivo, Balb/c mice; conditions: for Proliferation: [3H]thymidine
Procedure: Measurement of lymphocyte proliferation and cytokine production. Th cells were cultured in 96 well plates for proliferation assays and 24 well plates for supernatants (Corning Costar, Corning, N.Y.). After 72 h, supernatants were collected for ELISAs. For proliferation assays, 0.4 μCi of [3H]thymidine (ICN, Costa Mesa, Calif.) was added to each well and the cells were incubated for an additional 18 h. Radioactive thymidine incorporation was determined by liquid scintillation using a Beta plate Counter. Mouse IL-2, IL-4, IL-5 and IFN-γ production were detected using ELISA kits from Pharmingen, following the instructions provided. […] Asthma was induced in the mice as described (Zhang et al. 1999. Immunity 11: 473). Briefly mice were injected intraperitoneally with 10 µg of OVA in Alum twice on day 1 and 5 of asthma induction (primed). On day 10, mice were challenged intranasally with OVA in sterile saline, every day for three days (40 μg total). In an alternative protocol the mice were only challenged intranasally (unprimed) with OVA for three consecutive days. Asthma induction was effective with or without the use of immunization (Alum and OVA injections). Two weeks after asthma induction (the day after the last intranasal challenge) the mice were sacrificed. Two different Ciglitazone treatments were done. […] The mice continued on these diets for the remainder of the study.

[4] = test system: murine model of allergic asthma; assay: OVA-induced allergic asthma, lung histopathology (asthma severity); assay type: in vivo, Balb/c mice; conditions: for Asthma severity (total histopathology score 0-6): 0.12 μM Ciglitazone/daily per mouse in diet from one week before induction
Procedure: Asthma was induced in the mice as described (Zhang et al. 1999. Immunity 11: 473). Briefly mice were injected intraperitoneally with 10 µg of OVA in Alum twice on day 1 and 5 of asthma induction (primed). On day 10, mice were challenged intranasally with OVA in sterile saline, every day for three days (40 μg total). In an alternative protocol the mice were only challenged intranasally (unprimed) with OVA for three consecutive days. Asthma induction was effective with or without the use of immunization (Alum and OVA injections). Two weeks after asthma induction (the day after the last intranasal challenge) the mice were sacrificed. Two different Ciglitazone treatments were done. […] The mice continued on these diets for the remainder of the study. […] Asthma severity. The lungs were fixed in formalin and sent to the Penn State University Animal Diagnostic Laboratories for sectioning and staining with hematoxylin and eosin. The sections were scored blindly on a scale of 0 to 3 for inflammation and 0-3 for epithelial thickening. […] The inflammation and epithelial scores for each section were added together for a total histopathology score ranging from 0-6. The results are presented as means±SEMs. […] In this model, mice are initially exposed to OVA in complex with Alum intraperitoneally, then challenged intranasally with OVA. This protocol usually leads to increased inflammatory cell infiltration into the lung, thickening of the epithelial cells lining the bronchioles of the lung, mucous secretion and in most cases, increased presence of circulating serum IgE. These symptoms highlight the predominant TH2 nature of this disease. Mice (Balb/c) were primed and with OVA intranasally as described in the Materials and Methods section. Twenty-four hours after the final intranasal challenge, mice were analyzed for immunological symptoms of allergic asthma. […]

[5] = Primed mice, late Ciglitazone treatment

Compound	IFN-γ [1] [pg/mL]	IL-2 [1] [pg/mL]	IL-4 [2] [pg/mL]	IL-5 [1] [pg/mL]	IFN-γ [2] [pg/mL]	IL-2 [2] [pg/mL]	IL-5 [2] [pg/mL]	IL-5 ([3]; Primed mice fed Ciglitazone) [pg/mL]	Proliferation ([3]; Primed mice fed Ciglitazone) [CPM]	IFN-γ [3, 5] [pg/mL]	IL-4 [3, 5] [pg/mL]	IL-5 [3, 5] [pg/mL]	Proliferation [3, 5] [CPM]	Asthma severity (total histopathology score 0-6) ([4]; PRIMED mice (OVA/Alum i.p., then intranasal OVA))	Asthma severity (total histopathology score 0-6) ([4]; UNPRIMED mice, intranasal OVA challenge only)	Histopathology score of representative lung section (FIG. 1B) ([4]; representative lung, Ciglitazone treated)
CCCCC/C=C/C=C1/C(=O)C=C[C@@H]1C/C=C\CCCC(=O)O [PGJ2, 15-deoxy-Delta(12,14)-prostaglandin J(2)]	14370 ± 250	512 ± 1	1861 ± 28													
conjugated linoleic acid [CLA]	14689 ± 370	522 ± 20	1863 ± 62	150 ± 6	5592 ± 306	224 ± 4	240 ± 52									
CC1(COc2ccc(CC3SC(=O)NC3=O)cc2)CCCCC1 (stereo not shown) [Ciglitazone]								903 ± 87	10649 ± 492	4063 ± 170	395 ± 92	875 ± 79	10579 ± 1477	1+/−0.3 and 1.0 ± 0.3	0.8+/−0.2 and 0.8±0.2	1
